Experimental data published in US10512667B2, “Compositions and methods for treating conditions related to adrenocortical activity and/or excessive steroid production” (The Regents of the University of Michigan, priority 2017, dated 2019).
Entries after “also recorded” stand apart in the source; their conditions may differ.

Legend:
H295R cells [1] = assay: Resazurin reducing potential; type: cell-based; conditions: 32 μM ATR-101
Procedure: FIG. 4F: […] The cells were cultured with DMSO vehicle or 32 μM ATR-101 alone, or together with 2 mM MβCD. Resazurin fluorescence intensity was measured using a microplate reader at the indicated times at 37 C. The background signal of wells without resazurin was subtracted. […] DMSO control, *P<0.05).

H295R cells [2] = assay: Visualization of cholesterol levels by filipin III binding; type: cell-based; conditions: H295R cells; for cholesterol level / accumulation (filipin III binding), compound alone: serum-containing medium
Method in brief: (§1)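 Cells adhered 48 h, treated with compounds, fixed in 4% paraformaldehyde 20 min, then stained with 100 μg/ml filipin III for 2 h at 37 C in the dark and imaged. Esterification visualized after 2 h culture with 1 μM NBD-cholesterol following compound incubation.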

BD140C cells [3] = assay: as above; type: cell-based; conditions: 4 h
Method in brief: as §1

BD140C cells [4] = assay: Cellular ATP level (CellTiter-Glo); type: cell-based
Procedure: The ATP levels of cells were measured by lysis in CellTiter-Glo reagent (Promega), and measurement of the luminescence.
After 48 h, 20-80 μl of medium was removed from each well and replaced with 20 μl of each compound diluted to 6× of the final concentration in the culture medium to produce a final volume of 120 μl. The cells were incubated at 37 C in 5% CO2 atmosphere for a time ranging from 15 min to 24 h. The medium was removed and immediately replaced with 50 μl of CellTiter-Glo luminescence cell viability assay reagent (Promega). The cells were lysed by agitation at room temperature for 20 min in the dark. The luminescence was measured using a SpectraMax M5 microplate reader (Molecular Devices) with a 0.5 s acquisition time. The luminescence (RLU) values for control cells ranged from 5000 to 20000 RLU in all experiments, and were scaled by a factor of 0.001 to plot all graphs.

cholesterol-rich tissues = conditions: cynomologous monkeys; cited from earlier work
ACAT = conditions: cited from earlier work
[5] = system: guinea pig adrenal glands; conditions: cited from earlier work
H295R cells [6] = assay: Visualization of NBD-cholesterol esterification; type: cell-based; conditions: compound 2 h then 2 h with NBD-cholesterol, hydrochloride
Procedure: (§2) The cells were seeded in 96-well ibiTreat μ-Plates and allowed to adhere for 48 h prior to the start of each experiment. Cholesterol was detected in fixed cells by incubating with 100 μg/ml filipin III at 37 C for 2 h. The bound filipin III was imaged by fluorescence microscopy using 377/11 nm excitation and 447/60 nm emission wavelengths. Images were captured using either a 4× or a 60× objective. Cholesterol esterification was visualized by culturing the cells with 1 μM NBD-cholesterol for 2 h following incubation with the indicated compounds. NBD-cholesterol esters were imaged by fluorescence microscopy using 485/20 nm excitation wavelengths. Images were captured using either a 20× or a 60× objective.
(§3) The cells were seeded in 96-well ibiTreat μ-Plates (Ibidi) in 100 μl at a density of 50,000 cells per well. […] 5 μl of NBD-cholesterol was added to each well to produce a final concentration of 1 μM. When NBD-cholesterol is esterified and localized to cytoplasmic lipid droplets, it produces bright fluorescent foci in the cell. The inhibition of ACAT activity prevents fluorescent focus formation by NBD-cholesterol (see, e.g., Lada, et al., 2004 J Lipid Res, 45, 378-86). After 1.5 h, 5 μl of Hoechst 33342 was added to each well to produce a final concentration of 3 μg/ml. After 30 min, the medium was replaced with fresh medium. NBD-cholesterol esterification was visualized by fluorescence microscopy using either 485/20 nm (NBD) or 387/11 nm (Hoechst) excitation wavelengths and images were captured using either a 60× oil objective or a 20× objective.

BD140C cells [7] = assay: Visualization of NBD-cholesterol esterification; type: cell-based; conditions: compound 2 h then 2 h with NBD-cholesterol
Procedure: as §2, §3

H295R cells [8] = assay: Cholesterol efflux into serum-free medium with apoA1; type: cell-based; conditions: serum-free medium containing apoA-I, 4 h
Procedure: Cholesterol efflux was measured by replacing the culture medium with serum-free medium supplemented with 5 μg/ml apoA1 (Sigma) and the indicated compounds. After the indicated time, the serum-free medium was collected, and the cholesterol concentration was measured using the fluorometric enzyme-linked assay (Cayman Chemical).
After 48 h, the medium was removed and replaced with 50 μl serum-free medium supplemented with 5 μg/mL apoA1. After the indicated time, the supernatant containing the effluxed cholesterol, was transferred to a new 96-well plate. A cholesterol detection reagent (Cayman Chemical) consisting of cholesterol assay buffer, cholesterol assay detector (10-acetyl-3,7-dihydroxyphenoxazine [ADHP]), horseradish peroxidase, cholesterol oxidase, and cholesterol esterase was added, and the reactions were incubated for 30 min at 37 C. The fluorescence intensities were measured using ex. […] 590 nm. The cholesterol concentrations were calculated by interpolation between the values produced by cholesterol standards that were analyzed in parallel.

ABCG1 = assay: Transcript measurement by qPCR in H295R cells; type: cell-based
Procedure: (§4) mRNA was isolated (Qiagen), and was reverse transcribed using the Transcriptor First Strand cDNA synthesis kit (Roche). The relative amounts of cDNAs corresponding to the indicated transcripts were quantified using qPCR assays with specific primers (Table 2).
(§5) H295R cells were seeded in 6-well tissue culture plates (Corning #3506) at a density of 5 X105 per well. After 48 h, the compound(s) indicated were added, and the cells were cultured for the indicated time. The cells were harvested in 1.35 ml culture medium with trypsin. The cells were collected by centrifugation and lysed in 350 μl of RLT buffer (Qiagen) with β-mercaptoethanol. mRNA extraction and DNase treatment were performed according to the manufacturer's protocol (Qiagen). All RNA samples had 260/280 ratios greater than 1.5. The same amount of RNA ranging from 0.1 to 0.5 μg was used for reverse transcription using the Roche Transcriptor First Strand cDNA synthesis kit (Roche #04897030001) using the manufacturer's protocol. SYBR Green I-based real-time qPCR assays were performed using a Roche LightCycler480 instrument. The levels of transcripts in different samples were normalized by the levels of RPL9 transcripts.

IDOL = assay: Transcript measurement by qPCR in H295R cells; type: cell-based; conditions: within an hour after addition
Procedure: as §4, §5

SULT2A1 = assay: Transcript measurement by qPCR in H295R cells; type: cell-based; conditions: H295R cells cultured with ATR-101
Procedure: as §4, §5

CYP17A1 = assay: Transcript measurement by qPCR in H295R cells; type: cell-based; conditions: H295R cells cultured with ATR-101
Procedure: as §4, §5

CHOP = assay: Transcript measurement by qPCR in H295R cells; type: cell-based; conditions: 4 h
Procedure: as §4, §5

HSD3B2 = assay: Transcript measurement by qPCR in H295R cells; type: cell-based; conditions: H295R cells cultured with ATR-101
Procedure: as §4, §5

ABCA1 = assay: Transcript measurement by qPCR in H295R cells; type: cell-based
Procedure: as §4, §5

CC(C)c1cccc(C(C)C)c1NC(=O)NCC1(c2ccc(N(C)C)cc2)CCCC1.Cl [ATR-101, N-(2,6-bis(1-methylethyl)phenyl)-N′-((1-(4-(dimethylamino)phenyl)cyclopentyl)methyl)urea hydrochloride]
resazurin fluorescence (H295R cells [1]): sustained increase in resazurin fluorescence | cholesterol level / accumulation (filipin III binding), compound alone (H295R cells [2]; 24 h): increase in intracellular cholesterol | cholesterol level / accumulation (filipin III binding), compound alone (H295R cells [2]; up to 4 h, hydrochloride): caused cholesterol accumulation in or near the plasma membrane; also recorded: increase in cholesterol accumulation in the plasma membrane; also recorded: higher levels of filipin III binding to the plasma membrane | cholesterol level (filipin III binding), compound alone (H295R cells [2]; serum-free medium containing apoA-I, 4 h, hydrochloride): increased the level of cholesterol in intracellular membranes; also recorded: increased the cholesterol levels; also recorded: higher cholesterol levels | cholesterol level / accumulation (filipin III binding), compound alone (BD140C cells [3]): caused cholesterol accumulation in or near the plasma membrane | ATP level, compound alone (BD140C cells [4]; 4 h): reduced the ATP level | ATP level, compound alone (BD140C cells [4]; 24 h): reduced the ATP levels | tissue distribution of toxicity (cholesterol-rich tissues): limited to cholesterol-rich tissues, including the adrenal cortex, the corpus luteum, and sebaceous glands | ACAT activity (ACAT): inhibit ACAT activity | increase of the cholesterol level of adrenal glands ([5]; after 24 hours): 3 fold | onset of rise of the cholesterol level of adrenal glands ([5]; after ATR-101 administration): rises within an hour | NBD-cholesterol esterification and accumulation in lipid droplets (H295R cells [6]): inhibits NBD-cholesterol esterification; also recorded: eliminated both the intense foci and the diffuse fluorescence | NBD-cholesterol esterification and accumulation in lipid droplets (BD140C cells [7]): inhibited NBD-cholesterol esterification | cholesterol efflux, compound alone (H295R cells [8]): inhibited cholesterol efflux | ABCG1 transcript level (ABCG1; 4 h): inhibited | ABCG1 transcript level (ABCG1; within an hour after addition): reduced | IDOL transcript level (IDOL): reduced | SULT2A1 transcript level (SULT2A1): reduced | CYP17A1 transcript level (CYP17A1): reduced | CHOP transcript level (CHOP): activated | HSD3B2 transcript level (HSD3B2): reduced | ABCA1 transcript level (ABCA1; 4 h): inhibited | ABCA1 transcript level (ABCA1; within an hour after addition): reduced
